# Measurements as given in patent US20220211699A1 (priority 2019, published 2022).
# Columns and labels:
# [1] = test system: diabetic patients suffering from peripheral diabetic neuropathy; conditions: 100 mg/day in a divided dose; 6 diabetic patients; cited from earlier work
# [2] = test system: adult diabetic patients with painful distal symmetrical polyneuropathy; conditions: oral 50 or 100 mg/day; after 2 weeks of therapy; cited from earlier work
# [3] = test system: patients with diabetic neuropathy; test: Clinical study, Brief Pain Inventory-Short Form (BPI-SF) pain self-assessment; type: in vivo; conditions: Group 3
# Procedure: (§1) The clinical study was carried out on a population of 142 patients with diabetic neuropathy of both sexes and aged between 18 and 75 years. Patients were divided into three groups and submitted to a randomized, double blind, placebo-controlled, parallel-group clinical trial, with double-dummy modality for patients in group 2.
# (§2) Group 1 was treated with 20 mg trazodone (10 drops of 6% trazodone hydrochloride solution) three times a day for 8 weeks, for a total of 60 mg a day.
# (§3) Group 2 was treated with 10 mg trazodone (5 drops of 6% trazodone hydrochloride solution) three times a day for 8 weeks, for a total of 30 mg a day.
# (§4) Group 3 was treated with placebo, 10 drops of an oral solution three times a day for 8 weeks.
# (§5) During the ninth week, concluding the clinical trial, group 1 was treated with 10 mg trazodone three times daily for a total of 30 mg per day, while both group 2 and group 3 were treated with placebo.
# The 6% trazodone hydrochloride solution contained trazodone hydrochloride (6%), macrogol (35%), propylene glycol (30%), citric acid (0.5%), sucrose (0.15%), sodium hydroxide (0.125%), propyl gallate (0.10%), disodium edetate (0.05%), and purified water as needed at 100 mL. The placebo solution is identical to trazodone solution, but without active ingredient.
# Gabapentin was administered in an incremental dosage for all patients treated according to the dosage regimen shown in Table 1 below using capsules containing 100 mg, 300 mg and 400 mg of commercially available gabapentin (Neurontin®, Pfizer). The capsules contain lactose monohydrate, corn starch and talc as excipients, and E171 and […] color combinations.
# At the beginning of treatment and at the end of each treatment week, the patients under treatment completed the Brief Pain Inventory-Short Form (BPI-SF), which includes a set of questions relating to pain self-assessment (Zelman D C, et al., “Validation of a modified version of the pain inventory brief for painful diabetic peripheral neuropathy”, J. Pain Symptom Manage. 2005 April; 29(4):401-10).
# In particular, patients assessed the average pain intensity in the week prior to the assessment (issue 5) and at the time of the assessment (issue 6) on a scale from 0 to 10 where 0 represents “no pain” and 10 represents “more pain than you can imagine”.
# At each visit the evaluations were collected and processed in order to determine the deviation from the average value obtained for each group at the beginning of the treatment. The results were collected in the following Tables 3 and 4, from which the graphs shown in FIGS. 1 and 2 were obtained, respectively.
# [4] = test system: patients with diabetic neuropathy; test: Clinical study, SF-36 Mental Component Summary (MCS): positive risk of depression or anxiety; type: in vivo; conditions: Group 3
# Procedure: as §1, §2, §3, §4, §5
# Gabapentin was administered in an incremental dosage for all patients treated according to the dosage regimen shown in Table 1 below using capsules containing 100 mg, 300 mg and 400 mg of commercially available gabapentin (Neurontin®, Pfizer). […]
# The results are expressed as a percentage of patients with a positive risk of depression or anxiety compared to the normal general population in which a normal value of […] is estimated.
# [5] = Visit 1, placebo drops + gabapentin 300 mg/day
# [6] = Visit 2, placebo drops + gabapentin 600 mg/day
# [7] = Visit 3, placebo drops + gabapentin 900 mg/day
# [8] = Visit 4, placebo drops + gabapentin 1200 mg/day
# [9] = Visit 5, placebo drops + gabapentin 1800 mg/day
# [10] = Visit 6, placebo drops + gabapentin 2400 mg/day
# [11] = Visit 7, placebo drops + gabapentin 2400 mg/day
# [12] = Visit 8, placebo drops + gabapentin 2400 mg/day
# [13] = Visit 9, placebo drops + gabapentin
# [14] = placebo drops + incremental gabapentin
smiles,measurement,setting,value
"O=c1n(CCCN2CCN(c3cccc(Cl)c3)CC2)nc2ccccn12 [trazodone, 2-(3-[4-(3-chlorophenyl)piperazin-1-yl]propyl)-[1,2,4]triazole[4,3-a]pyridin-3(2H)-one]",effect in pain relief and numbness,[1],good effect
same,patients with complete relief,[2],22.6%
same,patients with symptomatic relief,[2],61.3%
"NCC1(CC(=O)O)CCCCC1 [gabapentin, 2-[1-(aminomethyl)cyclohexyl] acetic acid]","Average pain assessment deviation from beginning of treatment (Visit 0), Question 5",[3]; [5],−1.0
same,"Average pain assessment deviation from beginning of treatment (Visit 0), Question 6",[3]; [5],−0.9
same,"Average pain assessment deviation from beginning of treatment (Visit 0), Question 5",[3]; [6],−1.7
same,"Average pain assessment deviation from beginning of treatment (Visit 0), Question 6",[3]; [6],−1.4
same,"Average pain assessment deviation from beginning of treatment (Visit 0), Question 5",[3]; [7],−2.1
same,"Average pain assessment deviation from beginning of treatment (Visit 0), Question 6",[3]; [7],−1.7
same,"Average pain assessment deviation from beginning of treatment (Visit 0), Question 5",[3]; [8],−1.9
same,"Average pain assessment deviation from beginning of treatment (Visit 0), Question 6",[3]; [8],−1.6
same,"Average pain assessment deviation from beginning of treatment (Visit 0), Question 5",[3]; [9],−2.1
same,"Average pain assessment deviation from beginning of treatment (Visit 0), Question 6",[3]; [9],−1.8
same,"Average pain assessment deviation from beginning of treatment (Visit 0), Question 5",[3]; [10],−2.4
same,"Average pain assessment deviation from beginning of treatment (Visit 0), Question 6",[3]; [10],−2.0
same,"Average pain assessment deviation from beginning of treatment (Visit 0), Question 5",[3]; [11],−2.4
same,"Average pain assessment deviation from beginning of treatment (Visit 0), Question 6",[3]; [11],−1.9
same,"Average pain assessment deviation from beginning of treatment (Visit 0), Question 5",[3]; [12],−2.5
same,"Average pain assessment deviation from beginning of treatment (Visit 0), Question 6",[3]; [12],−2.0
same,"Average pain assessment deviation from beginning of treatment (Visit 0), Question 5",[3]; [13],−2.5
same,"Average pain assessment deviation from beginning of treatment (Visit 0), Question 6",[3]; [13],−2.0
same,"Patients with 50% reduction (percentage of patients with a reduction of at least 50% compared to the initial value), question 5",[3]; [14],45.8%
same,"Sum deviations (sum of all the deviations obtained at each visit), question 5",[3]; [14],−117.6
same,percentage of patients with a positive risk of depression or anxiety,"[4]; Visit 0 (beginning of treatment, baseline)",38%
same,percentage of patients with a positive risk of depression or anxiety,"[4]; Visit 8 (end of treatment), placebo drops + incremental gabapentin",29%
